The target in the test is SARS2 protease (Severe acute respiratory syndrome coronavirus 2, UniProt P0DTD1). Description: SARS-CoV-2 protease inhibition assay (SARS2 FRET protease assay). In kind it is biochemical. On the procedure: Viral protease assays: The antiviral activities of inhibitors were determined by FRET (Fluorescence Resonance Energy Transfer) assay. Purified viral protease was incubated with the protease substrate peptide (Edans-DFHLQ/GP-Dabcyl) and inhibitor, and IC50 values were subsequently determined by the fluorescence signals.
The SARS2 FRET protease assay was performed in 20 mM HEPES-Na pH 7, 120 mM NaCl, 0.4 mM EDTA, 0.01% Triton, 5% glycerol, and 4 mM DTT. A self-quenching peptide substrate 5-FAM-TSA VLQ SGF RKK (5TAMRA)-NH2 was custom synthesized by Anaspec. Compounds were diluted in 3-fold serial dilutions to final concentrations of 20 μM to 1.0 nM. SARS2 protease was added to a final concentration of 25 nM, depending on the enzyme activity level, and the peptide substrate was added to a final concentration of 1.3 μM. The assay was incubated 30 minutes at 30° C. and read in a Perkin Elmer Envision with excitation at 473 nm and emission measurement at 519 nm.

[1] abbreviates: Table E, SARS-CoV-2 protease inhibition, read-out: IC50.

pIC50: −log10 of the molar value. Read-outs that look alike come from different tables or passages of the source. Bounds are passed on as bounds.

A word on the pIC50: it is −log10 of the IC50, conventionally taken in molar units.

`CCOP(=O)(OCC)C(O)[C@@H]1CC2(CC=CCCCC(Cc3ccccc3)C(=O)N[C@@H](CC(C)C)C(=O)N1)CCNC2=O` (stereo partly drawn) [Compound B23, Diethyl (((7S,10S)-13-benzyl-10-isobutyl-1,9,12-trioxo-2,8,11-triazaspiro[4.14]nonadec-17-en-7-yl)(hydroxy)methyl)phosphonate]: the negative-log IC50 (pIC50) under setting [1] is 4.33.
Consider `CCOP(=O)(OCC)C(O)[C@H](CCC(=O)N(C)CC(C)c1ccccc1)NC(=O)[C@H](CC1CCCCC1)NC(=O)OCc1cccc(Cl)c1` (stereo partly drawn) [Compound A102, 3-Chlorobenzyl ((2S)-3-cyclohexyl-1-(((2S)-1-(diethoxyphosphoryl)-1-hydroxy-5-(methyl(2-phenylpropyl)amino)-5-oxopentan-2-yl)amino)-1-oxopropan-2-yl)carbamate], for which, under setting [1], the negative logarithm of the IC50 (pIC50) is under 3.70.
The same measure, in the same setting: in the case of `CCCCCCCCC(=O)N[C@@H](CC(C)C)C(=O)N[C@@H](CCC(=O)NC)CSSC[C@H](CCC(=O)NC)NC(=O)[C@H](CC(C)C)NC(=O)CCCCCCCC` [Compound A111, N,N′-((2S,2'S)-(((2S,2'S)-disulfanediylbis(5-(methylamino)-5-oxopentane-1,2-diyl))bis(azanediyl))bis(4-methyl-1-oxopentane-1,2-diyl))dinonanamide] it was under 3.70; in that of `CCCCCCCC1CC/C=C\CC(C(=O)N(C)C)CC(C=O)NC(=O)[C@H](CC(C)C)NC1=O` (stereo in doubt) [Compound B10, (2S,5S,Z)-5-formyl-13-heptyl-2-isobutyl-N,N-dimethyl-3,14-dioxo-1,4-diazacyclotetradec-9-ene-7-carboxamide], 3.98; in that of `CCCCCCCC1CC/C=C/CC(C(=O)NC)C[C@@H](C(=O)N(C)OC)NC(=O)C(CC(C)C)NC(=O)O1` (single isomer, unassigned) [Compound B36], under 3.70.
Take `CC(C)CC1NC(=O)OC(Cc2ccccc2)CC/C=C/CC(C(=O)N(C)C)CC(C=O)NC1=O` (stereo in doubt) [Compound B38, (4S,7S)-15-Benzyl-7-formyl-4-isobutyl-N,N-dimethyl-2,5-dioxo-1-oxa-3,6-diazacyclopentadec-11-ene-9-carboxamide]: the pIC50 under setting [1] is 3.86.
For the compound `CC(C)C[C@@H]1NC(=O)C(Cc2ccccc2)CCCCCCCC2CC(NC1=O)C(O)N(C)C2=O` (stereo partly drawn) [Compound B24, (4S)-7-benzyl-18-hydroxy-4-isobutyl-17-methyl-2,5,17-triazabicyclo[13.3.1]nonadecane-3,6,16-trione], the negative logarithm of the IC50 (pIC50) under setting [1] is 3.73.
On to `CON(C)C(=O)[C@H](CCC(=O)N(C)CC(C)c1ccccc1)NC(=O)[C@H](CC1CCCCC1)NC(=O)OCc1cccc(Cl)c1` (stereo in doubt) [Compound A35, 3-chlorobenzyl ((2S)-3-cyclohexyl-1-(((2S)-1-(methoxy(methyl)amino)-5-(methyl(2-phenylpropyl)amino)-1,5-dioxopentan-2-yl)amino)-1-oxopropan-2-yl)carbamate], for which the negative logarithm of the IC50 (pIC50) under setting [1] is under 3.70.
On to `CCCCCCCC1CCC/C=C/CC2(CCNC2=O)C[C@@H]([C@H](O)P(=O)(OCC)OCC)NC(=O)[C@H](CC(C)C)NC1=O` (stereo partly drawn) [Compound B22, Diethyl ((1R)-((7S,10S,E)-13-heptyl-10-isobutyl-1,9,12-trioxo-2,8,11-triazaspiro[4.14]nonadec-17-en-7-yl)(hydroxy)methyl)phosphonate], for which the pIC50 is under 3.70.
Consider `CCCCCCCCC(=O)N[C@@H](CC(C)C)C(=O)NC1(C)CCC(=O)N(C)C1(O)C(=O)NC(C)C` (stereo partly drawn) [Compound A5, 2-hydroxy-N-isopropyl-1,3-dimethyl-3-((S)-4-methyl-2-nonanamidopentanamido)-6-oxopiperidine-2-carboxamide], for which the pIC50 under setting [1] was under 3.70.
For the compound `CON(C)C(=O)[C@@H]1CC(C(=O)N(C)C)C/C=C/CCC(Cc2ccccc2)OC(=O)NC(CC(C)C)C(=O)N1` (stereo in doubt) [Compound B31, (4S,7S)-15-Benzyl-4-isobutyl-N7-methoxy-N7,N9,N9-trimethyl-2,5-dioxo-1-oxa-3,6-diazacyclopentadec-11-ene-7,9-dicarboxamide], the negative logarithm of the IC50 (pIC50) under setting [1] was under 3.70.
Turning to `CCCCCCCC1CCCCCCCC(C(=O)N(C)C)CC(C=O)NC(=O)[C@H](CC(C)C)NC1=O` (stereo in doubt) [Compound B17, (2S,5S)-5-formyl-15-heptyl-2-isobutyl-N,N-dimethyl-3,16-dioxo-1,4-diazacyclohexadecane-7-carboxamide], the pIC50 under setting [1] was under 3.70.
Same read-out and setting: with `CCCCCCCC1CCC/C=C/CC(C(=O)N(C)C)CC(C(=O)N(C)OC)NC(=O)[C@H](CC(C)C)NC(=O)O1` (stereo in doubt) [Compound B13, (4S,7S,E)-16-Heptyl-4-isobutyl-N^7-methoxy-N^7,N^9,N^9-trimethyl-2,5-dioxo-1-oxa-3,6-diazacyclohexadec-11-ene-7,9-dicarboxamide] the figure was under 3.70; with `CCCCCCCC1CC/C=C/CC(C(=O)NC)C[C@@H](C(=O)N(C)OC)NC(=O)C(CC(C)C)NC(=O)O1` (single isomer, unassigned) [Compound B34], under 3.70.
Turning to `CCOCCOCCN(C)C(=O)CC[C@H](NC(=O)[C@H](CC1CCCCC1)NC(=O)OCc1cccc(Cl)c1)C(=O)N(C)OC` [Compound A20, 3-Chlorobenzyl ((13S,16S)-17-cyclohexyl-13-(methoxy(methyl)carbamoyl)-9-methyl-10,15-dioxo-3,6-dioxa-9,14-diazaheptadecan-16-yl)carbamate], under setting [1], the pIC50 is under 3.70.
As to `CCCCCCCC1CCCCCCCC(C(=O)N(C)C)CC(C(=O)N(C)OC)NC(=O)[C@H](CC(C)C)NC1=O` (stereo in doubt) [Compound B9, (2S,5S)-15-heptyl-2-isobutyl-N^5-methoxy-N^5,N^7,N^7-trimethyl-3,16-dioxo-1,4-diazacyclohexadecane-5,7-dicarboxamide], under setting [1], the pIC50 was under 3.70.
On to `CCNC(=O)OCCN(C)C(=O)CC[C@@H](CO)NC(=O)[C@H](CC1CCCCC1)NC(=O)OCc1cccc(Cl)c1` [Compound A101, 3-Chlorobenzyl ((12S,15S)-16-cyclohexyl-12-(hydroxymethyl)-8-methyl-4,9,14-trioxo-5-oxa-3,8,13-triazahexadecan-15-yl)carbamate], for which the pIC50 under setting [1] is under 3.70.
On to `CON(C)C(=O)[C@H](CCC(=O)N(C)CCc1ccccc1)NC(=O)[C@H](CC1CCCCC1)NC(=O)OCc1cccc(Cl)c1` (stereo in doubt) [Compound A30, 3-chlorobenzyl ((S)-3-cyclohexyl-1-(((S)-1-(methoxy(methyl)amino)-5-(methyl(phenethyl)amino)-1,5-dioxopentan-2-yl)amino)-1-oxopropan-2-yl)carbamate], for which the pIC50 under setting [1] is under 3.70.
`CCOP(=O)(OCC)C(O)[C@@H]1CC(C(=O)N(C)C)CCCCCC(Cc2ccccc2)OC(=O)N[C@@H](CC(C)C)C(=O)N1` (stereo partly drawn) [Compound B45, Diethyl (((4S,7S)-15-benzyl-9-(dimethylcarbamoyl)-4-isobutyl-2,5-dioxo-1-oxa-3,6-diazacyclopentadecan-7-yl)(hydroxy)methyl)phosphonate]: under setting [1], the pIC50 was under 3.70.
On to `CON(C)C(=O)[C@H](CCC(=O)N(C)C)NC(=O)[C@H](CC1CCCCC1)NC(=O)OCc1cccc(Cl)c1` [Compound A3, 3-Chlorobenzyl ((S)-3-cyclohexyl-1-(((S)-5-(dimethylamino)-1-(methoxy (methyl)amino)-1,5-dioxopentan-2-yl)amino)-1-oxopropan-2-yl)carbamate], for which the pIC50 under setting [1] is under 3.70.
Turning to `CCCCCCCC1CC/C=C/CC(C(=O)NC)C[C@@H](C(=O)N(C)OC)NC(=O)C(CC(C)C)NC(=O)O1` (single isomer, unassigned) [Compound B33], the pIC50 under setting [1] was under 3.70.
With `CCNC(=O)OCCN(C)C(=O)CC[C@H](NC(=O)[C@H](CC1CCCCC1)NC(=O)OCc1cccc(Cl)c1)C(=O)N(C)OC` [Compound A21, 3-Chlorobenzyl ((12S,15S)-16-cyclohexyl-12-(methoxy(methyl)carbamoyl)-8-methyl-4,9,14-trioxo-5-oxa-3,8,13-triazahexadecan-15-yl)carbamate], the pIC50 under setting [1] was under 3.70.
On to `CCCCCCCC1CCCC/C=C/CC(C(=O)NC)C[C@@H](CO)NC(=O)[C@H](CC(C)C)NC1=O` (stereo partly drawn) [Compound B66, (2S,5S,E)-15-heptyl-5-(hydroxymethyl)-2-isobutyl-N-methyl-3,16-dioxo-1,4-diazacyclohexadec-9-ene-7-carboxamide], for which, under setting [1], the pIC50 is under 3.70.
In the case of `CCCCCCCC1CC/C=C/CC(C(=O)NC)C[C@@H](CO)NC(=O)[C@H](CC(C)C)NC(=O)O1` (stereo partly drawn) [Compound B63, (4S,7S,E)-15-heptyl-7-(hydroxymethyl)-4-isobutyl-N-methyl-2,5-dioxo-1-oxa-3,6-diazacyclopentadec-11-ene-9-carboxamide], the pIC50 under setting [1] was 4.52.
On to `CCCCCCCCC(=O)N[C@@H](CC(C)C)C(=O)N[C@H](CO)CCC(=O)NC` [Compound A110, N—((S)-1-(((S)-1-hydroxy-5-(methylamino)-5-oxopentan-2-yl)amino)-4-methyl-1-oxopentan-2-yl)nonanamide], for which the pIC50 under setting [1] is under 3.70.
For `CCOP(=O)(OCC)[C@H](O)[C@@H]1CC(C(=O)N(C)Cc2ccc(OC)cc2OC)C/C=C/CCC(Cc2ccccc2)OC(=O)N[C@@H](CC(C)C)C(=O)N1` (stereo partly drawn) [Compound B28, Diethyl ((1S)-((4S,7S,E)-15-benzyl-9-((2,4-dimethoxybenzyl)(methyl)carbamoyl)-4-isobutyl-2,5-dioxo-1-oxa-3,6-diazacyclopentadec-11-en-7-yl)(hydroxy)methyl)phosphonate], the negative logarithm of the IC50 (pIC50) under setting [1] was under 3.70.
`CCCCCCCC1CC/C=C/CC(C(=O)NC)C[C@@H](C(=O)N(C)OC)NC(=O)C(CC(C)C)NC(=O)O1` (single isomer, unassigned) [Compound B32]: under setting [1], the negative logarithm of the IC50 (pIC50) is under 3.70.

Source of the values: US20230151034A1 (COCRYSTAL PHARMA, INC., priority 2020, published 2023).
